Laboratory results from PubChem BioAssay AID300 (DTP/NCI, 2004).
“And” between values parts separate entries of the source, which are not always exact repeats. Equal values may be shown once. Inconclusive results are not listed. The calls were made as follows: active = survival T/C of 150% or more; inactive = T/C below 125% in these data. *1 amine or outer side, *2 acyl side, *3 side chain or, on linkers, in order; H or OH if unused. Where a SMILES comes first, the peptide text is derived from it. Bridges are numbered along the chain shown (N, C = ends). Roman numbers before positions name the chains, in order. [ ]: non-standard residue; d: D form. Actinocin(9to1) = Cc1c2oc3c(C)ccc(C(=O)[*:1])c3nc-2c(C(=O)[*:2])c(N)c1=O; aThr = C[C@H](O)[C@H](N)C(=O)O; NMeV = CN[C@H](C(=O)O)C(C)C; Sar = CNCC(=O)O

System: Madison 109 lung carcinoma i.m., mice, median survival
Assay: NCI In Vivo Anticancer Drug Screen. Data for tumor model Madison 109 Lung Carcinoma (intramuscular) in unknown mice
Conditions: endpoint: median survival time, higher = longer survival
Experimental: The antitumor activity of compounds was measured in mice bearing transplantable tumors. Survival or tumor size were measured and the results are expressed as the measurement made in the treated group (T) divided by the measurement made in the vehicle treated control group (C). The tumor model used in this assay is Madison 109 Lung Carcinoma (intramuscular) in unknown mice

[1] = dose: 2.0 mg/kg/injection, schedule: Q01DX009 (ip), vehicle: other
[2] = dose: 4.0 mg/kg/injection, schedule: Q01DX009 (ip), vehicle: other
[3] = dose: 8.0 mg/kg/injection, schedule: Q01DX009 (ip), vehicle: other
[4] = dose: 16.0 mg/kg/injection, schedule: Q01DX009 (ip), vehicle: other
[5] = dose: 3.0 mg/kg/injection, schedule: Q01DX009 (ip), vehicle: water
[6] = dose: 4.0 mg/kg/injection, schedule: Q01DX009 (ip), vehicle: water
[7] = dose: 6.0 mg/kg/injection, schedule: Q01DX009 (ip), vehicle: water
[8] = dose: 1.5 mg/kg/injection, schedule: Q01DX009 (ip), vehicle: water

Measured: T/C

COc1cccc2c1C(=O)c1c(O)c3c(c(O)c1C2=O)C[C@@](O)(C(=O)CO)C[C@@H]3OC1CC(N)C(O)C(C)O1 (stereo partly drawn)
inactive: dose: 0.25 mg/kg/injection, schedule: Q01DX005 (ip), vehicle: water 102 % of control | dose: 0.4 mg/kg/injection, schedule: Q01DX009 (ip), vehicle: water 98 % of control | dose: 0.5 mg/kg/injection, schedule: Q01DX005 (ip), vehicle: water 119 % of control and 120 % of control | dose: 0.63 mg/kg/injection, schedule: Q04DX003 (ip), vehicle: water 104 % of control | dose: 0.8 mg/kg/injection, schedule: Q01DX009 (ip), vehicle: water 104 % of control | dose: 1.0 mg/kg/injection, schedule: Q01DX005 (ip), vehicle: water 120 % of control | dose: 1.2 mg/kg/injection, schedule: Q01DX009 (ip), vehicle: water 105 % of control | dose: 1.25 mg/kg/injection, schedule: Q04DX003 (ip), vehicle: water 96 % of control | dose: 1.6 mg/kg/injection, schedule: Q01DX009 (ip), vehicle: water 102 % of control | dose: 2.5 mg/kg/injection, schedule: Q01DX005 (ip), vehicle: water 36 % of control | dose: 2.5 mg/kg/injection, schedule: Q04DX003 (ip), vehicle: water 101 % of control

Cc1c2ccncc2c(C)c2c1[nH]c1ccccc12
inactive: [1] 119 % of control | [2] 121 % of control | [3] 111 % of control | [4] 111 % of control

CC1=C(/C=C/C(C)=C/C=C/C(C)=C/C(=O)O)C(C)(C)CCC1
inactive: dose: 25.0 mg/kg/injection, schedule: Q01DX009 (ip), vehicle: other 94 % of control | dose: 50.0 mg/kg/injection, schedule: Q01DX009 (ip), vehicle: other 95 % of control

CN(C)c1nc(N(C)C)nc(N(C)C)n1
inactive: dose: 20.0 mg/kg/injection, schedule: Q01DX009 (ip), vehicle: other 89 % of control | dose: 40.0 mg/kg/injection, schedule: Q01DX009 (ip), vehicle: other 96 % of control

CC[C@H]1CN2CCc3cc(OC)c(OC)cc3[C@@H]2C[C@@H]1C[C@H]1NCCc2cc(OC)c(OC)cc21
inactive: dose: 2.0 mg/kg/injection, schedule: Q01DX009 (ip), vehicle: water 115 % of control | [5] 115 % of control | [6] 112 % of control | [7] 115 % of control

O=C(O)c1c(Cl)c(Cl)c(Cl)c(Cl)c1-c1c2cc(I)c(=O)c(I)c-2oc2c(I)c(O)c(I)cc12
inactive: [6] 90 % of control | dose: 8.0 mg/kg/injection, schedule: Q01DX009 (ip), vehicle: water 102 % of control | dose: 25.0 mg/kg/injection, schedule: Q01DX009 (ip), vehicle: water 100 % of control | dose: 32.0 mg/kg/injection, schedule: Q01DX009 (ip), vehicle: water 107 % of control | dose: 50.0 mg/kg/injection, schedule: Q01DX009 (ip), vehicle: water 106 % of control | dose: 64.0 mg/kg/injection, schedule: Q01DX009 (ip), vehicle: water 99 % of control

COc1cccc2c1C(=O)c1c(O)c3c(c(O)c1C2=O)C[C@@](O)(C(C)=O)C[C@@H]3OC1CC(N)C(O)C(C)O1 (stereo partly drawn)
inactive: dose: 0.25 mg/kg/injection, schedule: Q04DX003 (ip), vehicle: water 108 % of control | dose: 0.5 mg/kg/injection, schedule: Q04DX003 (ip), vehicle: water 120 % of control | dose: 1.0 mg/kg/injection, schedule: Q01DX009 (ip), vehicle: water 111 % of control | dose: 1.0 mg/kg/injection, schedule: Q04DX003 (ip), vehicle: water 94 % of control | [8] 55 % of control | dose: 1.5 mg/kg/injection, schedule: Q04DX003 (ip), vehicle: water 122 % of control | dose: 2.5 mg/kg/injection, schedule: Q01DX009 (ip), vehicle: water 32 % of control

O=[N+]([O-])c1ccc([N+](=O)[O-])c(Cl)c1
inactive: dose: 10.0 mg/kg/injection, schedule: Q02DX009 (ip), vehicle: water 122 % of control | dose: 20.0 mg/kg/injection, schedule: Q02DX009 (ip), vehicle: water 122 % of control | dose: 40.0 mg/kg/injection, schedule: Q02DX009 (ip), vehicle: water 122 % of control | dose: 80.0 mg/kg/injection, schedule: Q02DX009 (ip), vehicle: water 90 % of control

c1ccc([C@H]2CN3CCSC3=N2)cc1
inactive: dose: 0.75 mg/kg/injection, schedule: Q01DX009 (ip), vehicle: water 114 % of control | [8] 122 % of control | [5] 97 % of control | [7] 108 % of control

Cc1c2oc3c(C)ccc(C(=O)N[C@@H]4C(=O)N[C@H](C(C)C)C(=O)N5CCC[C@H]5C(=O)N(C)CC(=O)N(C)[C@@H](C(C)C)C(=O)O[C@H]4C)c3nc-2c(C(=O)N[C@@H]2C(=O)N[C@H](C(C)C)C(=O)N3CCC[C@H]3C(=O)N(C)CC(=O)N(C)[C@@H](C(C)C)C(=O)O[C@H]2C)c(N)c1=O (I: [aThr][dV]P[Sar][NMeV] / II: [aThr][dV]P[Sar][NMeV]; ester I:1-I:C, II:1-II:C; linker I:N-II:N via Actinocin(9to1))
inactive: dose: 0.04 mg/kg/injection, schedule: Q02DX009 (ip), vehicle: water 100 % of control | dose: 0.05 mg/kg/injection, schedule: Q02DX009 (ip), vehicle: water 108 % of control | dose: 0.05 mg/kg/injection, schedule: Q03DX009 (ip), vehicle: water 110 % of control | dose: 0.05 mg/kg/injection, schedule: Q04DX009 (ip), vehicle: water 106 % of control | dose: 0.06 mg/kg/injection, schedule: Q02DX009 (ip), vehicle: water 100 % of control | dose: 0.08 mg/kg/injection, schedule: Q02DX009 (ip), vehicle: water 121 % of control | dose: 0.08 mg/kg/injection, schedule: Q04DX009 (ip), vehicle: water 110 % of control | dose: 0.1 mg/kg/injection, schedule: Q01DX001 (ip), vehicle: water 112 % of control | dose: 0.2 mg/kg/injection, schedule: Q01DX001 (ip), vehicle: water 110 % of control | dose: 0.4 mg/kg/injection, schedule: Q01DX001 (ip), vehicle: water 110 % of control

CO[C@H]1/C=C/O[C@@]2(C)Oc3c(C)c(O)c4c(O)c(c(/C=N/N5C(C)CN(Cc6ccccc6)CC5C)c(O)c4c3C2=O)NC(=O)/C(C)=C\C=C\[C@H](C)[C@H](O)[C@@H](C)[C@@H](O)[C@@H](C)[C@H](OC(C)=O)[C@@H]1C (stereo partly drawn)
inactive: dose: 16.0 mg/kg/injection, schedule: Q03HX008 (ip), vehicle: saline 114 % of control | dose: 16.0 mg/kg/injection, schedule: Q03HX024 (ip), vehicle: saline 101 % of control | dose: 32.0 mg/kg/injection, schedule: Q03HX008 (ip), vehicle: saline 116 % of control | dose: 64.0 mg/kg/injection, schedule: Q01DX009 (ip), vehicle: saline 108 % of control | dose: 64.0 mg/kg/injection, schedule: Q03HX008 (ip), vehicle: saline 109 % of control | dose: 64.0 mg/kg/injection, schedule: Q04DX003 (ip), vehicle: saline 103 % of control | dose: 128.0 mg/kg/injection, schedule: Q01DX001 (ip), vehicle: saline 105 % of control | dose: 128.0 mg/kg/injection, schedule: Q04DX003 (ip), vehicle: saline 106 % of control | dose: 256.0 mg/kg/injection, schedule: Q01DX001 (ip), vehicle: saline 95 % of control

COC1=C(OC)C(=O)C(C/C=C(\C)CC/C=C(\C)CC/C=C(\C)CC/C=C(\C)CC/C=C(\C)CC/C=C(\C)CC/C=C(\C)CC/C=C(\C)CC/C=C(\C)CCC=C(C)C)=C(C)C1=O
inactive: dose: 1.0 mg/kg/injection, schedule: Q01DX009 (ip), vehicle: other 95 % of control | [1] 97 % of control | [2] 94 % of control | [3] 94 % of control | [4] 102 % of control
